Experiments:
[1] = test system: human breast cancer cell line SKBR3; experiment: Test 1 of anti-proliferative activity against tumor cells (Cell-Titer Glo); assay type: cell-based; conditions: Homo sapiens, SK-BR-3, 120 h, read-out: SKBR3 Anti-proliferative activity IC50 (nM), SKBR3 cells, cultured 5 days with compound, Cell-Titer Glo
Experimental: (§1) Cell culture: HCT116 cells and SKBR3 cells were cultured in McCoy's 5a medium containing 10% fetal bovine serum+1% penicillin-streptomycin at 37° C. and 5% CO2, and OVCAR3 cells were cultured in 1640 medium containing 20% fetal bovine serum+2 μg/mL bovine insulin+1% penicillin-streptomycin at 37° C. and 5% CO2. Cells in logarithmic growth phase were suitable for the experiment.
(§2) Detection of cell proliferation activity: The inhibitory activity of the compounds on the proliferation of the three cell lines HCT116, SKBR3 and OVCAR3 was detected using Cell-Titer Glo reagent. HCT116 cells (1500 cells per well), SKBR3 cells (3000 cells per well) and OVCAR3 cells (5000 cells per well) were seeded in 96-well plates and cultured at 37° C. and 5% CO2 for 24 h. The solution of the compound to be tested (the compound was dissolved in DMSO with the concentration of the compound being 1 mM, then the compound was diluted to 3 μM with DMSO, with 3-fold dilution and a total of 9 concentrations, and 10 μL of the prepared compound solution was transferred to a 96-well plate with the final concentration of 0-300 nM) was added. The cells were placed at 37° C. and 5% CO2 for further culture. HCT116 cells were cultured for 3 days, and SKBR3 cells and OVCAR3 cells were cultured for 5 days. The cell viability was detected by adding Cell-Titer Glo reagent.
(§3) Additionally, a negative control group and a positive control group were provided as Bottom and Top, respectively. In the negative control group, the cells were not added, only the same volume of medium was added, and other operations were consistent with those in the experimental group; in the positive control group, the test compound was not added, only the same volume of DMSO was added, and other operations were consistent with those in the experimental group.
(§4) Data analysis: The % compound inhibition was calculated, and fitting was performed to obtain IC50 of the compound.
(§5) % Compound inhibition=1−100%*(Signal−Bottom)/(Top−Bottom).
(§6) Signal represents the signal value of the experimental group, Bottom represents the average signal value of the negative control group, and Top represents the average signal value of the positive control group.

[2] = test system: Human colorectal cancer cell line HCT116; experiment: as above; assay type: cell-based; conditions: Homo sapiens, HCT-116, 72 h, read-out: HCT116 Anti-proliferative activity IC50 (nM), HCT116 cells, cultured 3 days with compound, Cell-Titer Glo
Experimental: as §1, §2, §3, §4, §5, §6

Compound	IC50 [1]	IC50 [2]
CC[C@@]1(O)C(=O)OCc2c1cc1n(c2=O)Cc2c-1nc1cc3c(cc1c2CNC(=O)CO)OCCO3 [Compound 1, (S)-N-((8-ethyl-8-hydroxy-9,12-dioxo-2,3,8,9,12,14-hexahydro-11H-[1,4]dioxino[2,3-g]pyrano[3′,4′:6,7]indolizino[1,2-b]quinolin-15-yl)methyl)-2-hydroxyacetamide]	8.5 nM	36.8 nM
CC[C@@]1(O)C(=O)OCc2c1cc1n(c2=O)Cc2c-1nc1cc(F)c(Cl)cc1c2CN [Compound 2, (S)-11-(aminomethyl)-9-chloro-4-ethyl-8-fluoro-4-hydroxy-1,12-dihydro-14H-pyrano[3′,4′:6,7]indolizino[1,2-b]quinoline-3,14(4H)-dione]	2.5 nM	3.6 nM
CC[C@@]1(O)C(=O)OCc2c1cc1n(c2=O)Cc2c-1nc1cc(F)c(Cl)cc1c2CNC(=O)CO [Compound 3, (S)-N-((9-chloro-4-ethyl-8-fluoro-4-hydroxy-3,14-dioxo-3,4,12, 14-tetrahydro-1H-pyrano[3′,4′:6,7]indolizino[1,2-b]quinolin-11-yl)methyl)-2-hydroxyacetamid]	3.6 nM	18.2 nM
CC[C@@]1(O)C(=O)OCc2c1cc1n(c2=O)Cc2c-1nc1cc(F)c(Br)cc1c2CN [Compound 4, (S)-11-(aminomethyl)-9-bromo-4-ethyl-8-fluoro-4-hydroxy-1,12-dihydro-14H-pyrano[3′,4′:6,7]indolizino[1,2-b]quinoline-3,14(4H)-dione]	2.7 nM	3.6 nM
CC[C@@]1(O)C(=O)OCc2c1cc1n(c2=O)Cc2c-1nc1cc(F)c(Br)cc1c2CNC(=O)CO [Compound 5, (S)-N-((9-bromo-4-ethyl-8-fluoro-4-hydroxy-3,14-dioxo-3,4, 12,14-tetrahydro-1H-pyrano[3′,4′:6,7]indolizino[1,2-b]quinolin-11-yl)methyl)-2-hydroxyacetamide]	3.3 nM	16.9 nM
CC[C@@]1(O)C(=O)OCc2c1cc1n(c2=O)Cc2c-1nc1ccc3c(c1c2CNC(=O)CO)CCC3 [Compound 7, (S)-N-((8-ethyl-8-hydroxy-9,12-dioxo-2,3,8,9,12,14-hexahydro-1H,11H-cyclopentadieno[f]pyrano[3′,4′:6,7]indolizino[1,2-b]quinolin-15-yl)methyl)-2-hydroxyacetamide]		22.8 nM
CC[C@@]1(O)C(=O)OCc2c1cc1n(c2=O)Cc2cc3c(CNC(=O)CO)c(O)ccc3nc2-1 [Compound 8, (S)-N-((4-ethyl-4,9-dihydroxy-3,14-dioxo-3,4,12,14-tetrahydro-1H-pyrano[3′,4′:6,7]indolizino[1,2-b]quinolin-10-yl)methyl)-2-hydroxyacetamide]	55.1 nM	289 nM
CC[C@@]1(O)C(=O)OCc2c1cc1n(c2=O)Cc2c-1nc1cc(F)c(C)cc1c2CNC(=O)C1(O)CC1 [Compound 9, (S)-N-((4-ethyl-8-fluoro-4-hydroxy-9-methyl-3,14-dioxo-3,4,12, 14-tetrahydro-1H-pyrano[3′,4′:6,7]indolizino[1,2-b]quinolin-11-yl)methyl)-1-hydroxycyclopropane-1-carboxamide]	2.1 nM	4.6 nM
CC[C@@]1(O)C(=O)OCc2c1cc1n(c2=O)Cc2c-1nc1cc(Cl)c(C)cc1c2CNC(=O)C1(O)CC1 [Compound 10, (S)-N-((8-chloro-4-ethyl-4-hydroxy-9-methyl-3,14-dioxo-3,4, 12,14-tetrahydro-1H-pyrano[3′,4′:6,7]indolizino[1,2-b]quinolin-11-yl)methyl)-1-hydroxycyclopropan-1-carboxamide]	2.3 nM	5.6 nM
CC[C@@]1(O)C(=O)OCc2c1cc1n(c2=O)Cc2c-1nc1cc(Cl)c(C)cc1c2CNC(=O)C(O)C1CC1 (stereo partly drawn) [Compound 11, N-(((S)-8-chloro-4-ethyl-4-hydroxy-9-methyl-3,14-dioxo-3,4, 12,14-tetrahydro-1H-pyrano[3′,4′:6,7]indolizino[1,2-b]quinolin-11-yl)methyl)-2-cyclopropyl-2-hydroxyacetamide]	3.2 nM	10.4 nM
CC[C@@]1(O)C(=O)OCc2c1cc1n(c2=O)Cc2c-1nc1cc(F)c(Cl)c(F)c1c2CN [Compound 12, (S)-11-(aminomethyl)-9-chloro-4-ethyl-8,10-difluoro-4-hydroxy-1,12-dihydro-14H-pyrano[3′,4′:6,7]indolizino[1,2-b]quinoline-3,14(4H)-dione]	4.8 nM	13.7 nM
CC[C@@]1(O)C(=O)OCc2c1cc1n(c2=O)Cc2c-1nc1cnc(Br)cc1c2CNC(=O)CO [Compound 15, (S)-N-((9-bromo-4-ethyl-4-hydroxy-3,14-dioxo-3,4,12,14-tetrahydro-1H-pyrano[3′,4′:6,7]indolizino[1,2-b][1,7]naphthyridin-11-yl)methyl)-2-hydroxyacetamide]		81.3 nM
CC[C@@]1(O)C(=O)OCc2c1cc1n(c2=O)Cc2c-1nc1cc(F)c(Cl)c(F)c1c2CNC(=O)C1(O)CC1 [Compound 16, (S)-N-((9-chloro-4-ethyl-8,10-difluoro-4-hydroxy-3,14-dioxo-3,4,12,14-tetrahydro-1H-pyrano[3′,4′:6,7]indolizino[1,2-b]quinolin-11-yl)methyl)-1-hydroxycyclopropane-1-carboxamide]	2.3 nM	3 nM
CC[C@@]1(O)C(=O)OCc2c1cc1n(c2=O)Cc2c-1nc1cc(Cl)c(C)cc1c2CNC(=O)C(C)(C)O [Compound 17, (S)-N-((8-chloro-4-ethyl-4-hydroxy-9-methyl-3,14-dioxo-3,4, 12,14-tetrahydro-1H-pyrano[3′,4′:6,7]indolizino[1,2-b]quinolin-11-yl)methyl)-2-hydroxy-2-methylpropanamide]	2.7 nM	6 nM
CC[C@@]1(O)C(=O)OCc2c1cc1n(c2=O)Cc2c-1nc1cc(Cl)c(C)cc1c2CNC(=O)C(O)C(C)C (stereo partly drawn) [Compound 18, N-(((S)-8-chloro-4-ethyl-4-hydroxy-9-methyl-3,14-dioxo-3,4, 12,14-tetrahydro-1H-pyrano[3′,4′:6,7]indolizino[1,2-b]quinolin-11-yl)methyl)-2-hydroxy-3-methylbutanamide]	5.1 nM	10.5 nM
CC[C@@]1(O)C(=O)OCc2c1cc1n(c2=O)Cc2c-1nc1cc(F)c(C)cc1c2CNC1(CO)CC1 [Compound 19, (S)-4-ethyl-8-fluoro-4-hydroxy-11-(((1-(hydroxymethyl)cyclopropyl)amino)methyl)-9-methyl-1,12-dihydro-14H-pyrano[3′,4′:6,7]indolizino[1,2-b]quinoline-3,14(4H)-dione]	4 nM	5 nM
CC[C@@]1(O)C(=O)OCc2c1cc1n(c2=O)Cc2c-1nc1ccc3occc3c1c2CNC(=O)CO [Compound 20, (S)-N-((8-ethyl-8-hydroxy-9,12-dioxo-8,9,12,14-tetrahydro-11H-furo[3,2-f]pyrano[3′,4′:6,7]indolizino[1,2-b]quinolin-15-yl)methyl)-2-hydroxyacetamide]	10.5 nM	20.7 nM
CC[C@@]1(O)C(=O)OCc2c1cc1n(c2=O)Cc2c-1nc1cc(Cl)c3occc3c1c2CNC(=O)CO [Compound 27, (S)-N-((4-chloro-8-ethyl-8-hydroxy-9,12-dioxo-8,9,12,14-tetrahydro-11H-furo[3,2-f]pyrano[3′,4′:6,7]indolizino[1,2-b]quinolin-15-yl)methyl)-2-hydroxyacetamide]		24.3 nM
CC[C@@]1(O)C(=O)OCc2c1cc1n(c2=O)Cc2c-1nc1cc(Cl)c3occc3c1c2CNC(=O)C(O)C1CC1 (stereo partly drawn) [Compound 28, N-(((S)-4-chloro-8-ethyl-8-hydroxy-9,12-dioxo-8,9,12,14-tetrahydro-11H-furo[3,2-f]pyrano[3′,4′:6,7]indolizino[1,2-b]quinolin-15-yl)methyl)-2-cyclopropyl-2-hydroxyacetamide]		8.8 nM
CC[C@@]1(O)C(=O)OCc2c1cc1n(c2=O)Cc2c-1nc1cc3c(c([N+](=O)[O-])c1c2CNC(=O)C(O)C1CC1)OCO3 (stereo partly drawn) [Compound 29, 2-cyclopropyl-N-(((S)-7-ethyl-7-hydroxy-15-nitro-8,11-dioxo-7,8,11,13-tetrahydro-10H-[1,3]dioxolo[4,5-g]pyrano[3′,4′:6,7]indolizino[1,2-b]quinolin-14-yl)methyl)-2-hydroxyacetamide]		55.1 nM
